Literature values as cited in patent US20090156647A1, “Method for maintaining physiological pH levels during intensive physical exercise” (IOVATE T. & P. INC., priority 2007, published 2009).

Conditions: about 1.5 g of HICA daily after intense exercise for 42 days

For CC(C)CC(O)C(=O)O (centres unmarked) [HICA, 2-hydroxy-4-methylvaleric acid], the “delayed onset muscular soreness (DOMS) experienced by subjects” value is listed as “little to no DOMS” and the “total lean soft tissue mass” value is listed as “statistically significant increase”.
